Laboratory results from patent US11608323B2 (SYNGENTA LIMITED, priority 2013, dated 2023).

Experiments:
Type in all cases: in vivo
ECHCG [1] = test: Pre-emergence herbicidal activity, glasshouse pot test; conditions: rate 1000 g/Ha, evaluated after 13 days, scale 0-5
Procedure, shortened: (§1)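 Damage rated 13 days post-treatment on a 0-5 scale, 5 meaning total plant damage. Pots were sprayed pre-emergence, one day after sowing, with an acetone/water-derived aqueous spray containing 0.5% Tween 20. Plants grew under 14 h light, 65% humidity, 24/16 °C, watered twice daily.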

ALOMY [2] = test: as above; conditions: rate 1000 g/Ha, evaluated after 13 days, scale 0-5
Procedure, shortened: as §1

AMARE [3] = test: as above; conditions: rate 1000 g/Ha, evaluated after 13 days, scale 0-5
Procedure, shortened: as §1

ZEAMX [4] = test: as above; conditions: rate 1000 g/Ha, evaluated after 13 days, scale 0-5
Procedure, shortened: as §1

SETFA [5] = test: as above; conditions: rate 1000 g/Ha, evaluated after 13 days, scale 0-5
Procedure, shortened: as §1

ABUTH [6] = test: as above; conditions: rate 1000 g/Ha, evaluated after 13 days, scale 0-5
Procedure, shortened: as §1

ECHCG [7] = test: Post-emergence herbicidal activity, glasshouse pot test; conditions: Echinochloa crus-galli; application post-emergence; rate 1000 g/Ha; evaluated after 13 days
Procedure, shortened: (§2)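 Seeds were sown in standard soil and cultivated for 8 days under controlled glasshouse conditions. Seedlings were then sprayed with an aqueous solution of the formulated compound containing 0.5% Tween 20. Injury was rated after a further 13 days, where 5 indicated total damage.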

ALOMY [8] = test: as above; conditions: Alopecurus myosuroides; application post-emergence; rate 1000 g/Ha; evaluated after 13 days
Procedure, shortened: as §2

AMARE [9] = test: as above; conditions: Amaranthus retroflexus; application post-emergence; rate 1000 g/Ha; evaluated after 13 days
Procedure, shortened: as §2

ZEAMX [10] = test: as above; conditions: Zea mays; application post-emergence; rate 1000 g/Ha; evaluated after 13 days
Procedure, shortened: as §2

SETFA [11] = test: as above; conditions: Setaria faberi; application post-emergence; rate 1000 g/Ha; evaluated after 13 days
Procedure, shortened: as §2

ABUTH [12] = test: as above; conditions: Abutilon theophrasti; application post-emergence; rate 1000 g/Ha; evaluated after 13 days
Procedure, shortened: as §2

Structure (SMILES)	ECHCG damage score, application pre-emergence (ECHCG [1])	ALOMY damage score, application pre-emergence (ALOMY [2])	AMARE damage score, application pre-emergence (AMARE [3])	ZEAMX damage score, application pre-emergence (ZEAMX [4])	SETFA damage score, application pre-emergence (SETFA [5])	ABUTH damage score, application pre-emergence (ABUTH [6])	Post-emergence herbicidal activity ECHCG (damage score 0-5) (ECHCG [7])	Post-emergence herbicidal activity ALOMY (damage score 0-5) (ALOMY [8])	Post-emergence herbicidal activity AMARE (damage score 0-5) (AMARE [9])	Post-emergence herbicidal activity ZEAMX (damage score 0-5) (ZEAMX [10])	Post-emergence herbicidal activity SETFA (damage score 0-5) (SETFA [11])	Post-emergence herbicidal activity ABUTH (damage score 0-5) (ABUTH [12])
CC1C(O)N(c2cc(C(F)(F)F)c(Cl)cn2)C(=O)N1C (stereo not drawn) [Compound A49]	4	4	5	3	4	5	5	5	5	4	5	5
CON1C(=O)N(c2cc(C(F)(F)F)c(Cl)cn2)C(O)C1C (stereo not drawn) [Compound A50]	5	4	5	2	4	5	5	5	5	5	5	5
CCOC1C(O)N(c2cc(C(F)(F)F)c(C)cn2)C(=O)N1C (stereo not drawn) [Compound A52]	5	4	5	2	4	5	5	5	5	5	5	5
CCOC1C(O)N(c2cc(C(F)(F)F)c(Cl)cn2)C(=O)N1C (stereo not drawn) [Compound A53]	4	4	5	2	4	5	5	5	5	3	5	5
CCOC1C(O)N(c2cc(C(C)(F)F)ccn2)C(=O)N1C (stereo not drawn) [Compound A59]	3	4	5	1	3	5	5	5	5	4	5	5
CC1C(O)N(c2cc(C(C)(F)F)ccn2)C(=O)N1C (stereo not drawn) [Compound A60]	1	1	5	0	1	5	4	4	5	3	3	5
CCOC1C(O)N(c2cc(C(C)(C)F)ccn2)C(=O)N1C (stereo not drawn) [Compound A61]	4	4	5	1	1	5	5	5	5	3	5	5
CCOC1C(OC(C)=O)N(c2cc(C(F)(F)F)ccn2)C(=O)N1C (stereo not drawn) [Compound A96]	4	4	5	1	4	5	5	5	5	3	5	5
CCOC1C(OC(=O)[C@@H](OC(C)=O)c2ccccc2)N(c2cc(C(F)(F)F)ccn2)C(=O)N1C (stereo partly drawn) [Compound A97]	4	4	5	3	4	5	5	5	5	3	5	5
CCOC1C(OC(=O)[C@@H]2[C@@H](C=C(Cl)Cl)C2(C)C)N(c2cc(C(F)(F)F)ccn2)C(=O)N1C (stereo partly drawn) [Compound A98]	0	0	0	0	0	0	0	0	4	1	0	0
CCOC1C(OC(=O)[C@@H](C)c2ccc(CC(C)C)cc2)N(c2cc(C(F)(F)F)ccn2)C(=O)N1C (stereo partly drawn) [Compound A99]	0	0	5	0	0	1	3	0	5	1	0	1
CCOC1C(OC(=O)[C@@H]2CCCO2)N(c2cc(C(F)(F)F)ccn2)C(=O)N1C (stereo partly drawn) [Compound A100]	3	4	5	1	3	5	5	5	5	4	5	5
CCO[C@@H]1[C@@H](OC(=O)C(C)Cl)N(c2cc(C(F)(F)F)ccn2)C(=O)N1C (stereo partly drawn) [Compound A101]	4	4	5	0	4	5	5	5	5	3	5	5
